ChEMBL document CHEMBL1201862, “PubChem BioAssay data set” (2004)
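Results reflect a 48-hour exposure of cells in 96-well plates to compound at five concentrations. GI50 marks 50% less growth.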 The source made the active and inactive calls. Rule as the data show it: active = GI50 up to about 1.1 µM and inactive = higher.

What was measured:
Test in all cases: inhibition of tumour cell growth, NCI panel, 48 h
BT-549 = tested on: BT-549
U-251 = tested on: U-251
UO-31 = tested on: UO-31
SNB-19 = tested on: SNB-19
COLO 205 = tested on: COLO 205
DU-145 = tested on: DU-145
NCI-H522 = tested on: NCI-H522
CAKI-1 = tested on: CAKI-1
CCRF-CEM = tested on: CCRF-CEM
ACHN = tested on: ACHN
NCI-H226 = tested on: NCI-H226
HCC 2998 = tested on: HCC 2998
OVCAR-8 = tested on: OVCAR-8
UACC-257 = tested on: UACC-257
KM12 = tested on: KM12
HCT-15 = tested on: HCT-15
K562 = tested on: K562
HL-60 = tested on: HL-60
T47D = tested on: T47D
EKVX = tested on: EKVX

SMILES	GI50 (BT-549)	GI50 (U-251)	GI50 (UO-31)	GI50 (SNB-19)	GI50 (COLO 205)	GI50 (DU-145)	GI50 (NCI-H522)	GI50 (CAKI-1)	GI50 (CCRF-CEM)	GI50 (ACHN)	GI50 (NCI-H226)	GI50 (HCC 2998)	GI50 (OVCAR-8)	GI50 (UACC-257)	GI50 (KM12)	GI50 (HCT-15)	GI50 (K562)	GI50 (HL-60)	GI50 (T47D)	GI50 (EKVX)
CCCCCCCCCCCCCCCCCCOCC(COP(=O)([O-])OCC[N+](C)(C)C)OC (stereo unspecified) [EDELFOSINE]	48.8 µM (inactive)	13.6 µM (inactive)	27.4 µM (inactive)	20.7 µM (inactive)	2.65 µM (inactive)	> 100 µM (inactive)	11.4 µM (inactive)	13.1 µM (inactive)	7.62 µM (inactive)	> 72.8 µM (inactive)	26.4 µM (inactive)	2.38 µM (inactive)	32.1 µM (inactive)	24 µM (inactive)	5.09 µM (inactive)	3.36 µM	44.3 µM (inactive)	3.94 µM (inactive)	> 100 µM (inactive)	44.3 µM (inactive)
Cn1cnc2c1c(=O)n(CCNCCO)c(=O)n2C	> 100 µM (inactive)	> 100 µM (inactive)	> 100 µM (inactive)	> 100 µM (inactive)	> 100 µM (inactive)	> 100 µM (inactive)	> 100 µM (inactive)	> 100 µM (inactive)	> 100 µM (inactive)	> 100 µM (inactive)	> 100 µM (inactive)	> 100 µM (inactive)	> 100 µM (inactive)	> 100 µM (inactive)	> 100 µM (inactive)	> 100 µM	> 100 µM (inactive)	> 100 µM (inactive)	> 100 µM (inactive)	> 100 µM (inactive)
OCCNCNc1nc(NCNCCO)nc(N(CNCCO)CNCCO)n1	21.1 µM (inactive)	21.1 µM (inactive)	33.2 µM (inactive)	17.1 µM (inactive)	15.7 µM (inactive)	18.5 µM (inactive)	21.3 µM (inactive)	22.4 µM (inactive)	12.2 µM (inactive)	27 µM (inactive)	22.6 µM (inactive)	18.9 µM (inactive)	24.3 µM (inactive)	18.2 µM (inactive)	39.4 µM (inactive)	25.2 µM	19.9 µM (inactive)	20.5 µM (inactive)	23.7 µM (inactive)	25.3 µM (inactive)
CSc1c(C(=O)Nc2ccc(C)cc2)c(N)nn1-c1ccccc1	43.2 µM (inactive)	28.3 µM (inactive)	> 100 µM (inactive)	26.7 µM (inactive)	> 100 µM (inactive)	42.8 µM (inactive)	71.4 µM (inactive)	23.4 µM (inactive)	> 100 µM (inactive)	43.8 µM (inactive)	> 100 µM (inactive)	58.3 µM (inactive)		54 µM (inactive)		> 100 µM	> 100 µM (inactive)	> 100 µM (inactive)	98.9 µM (inactive)	49.4 µM (inactive)
O=C1c2ccc3cc(CCl)cc(O)c3c2C(=O)c2cccc(O)c21	> 10 µM (inactive)	2.72 µM (inactive)		4.58 µM (inactive)	1.95 µM (inactive)	4.95 µM (inactive)	3.28 µM (inactive)	> 10 µM (inactive)	1.07 µM (active)	2.91 µM (inactive)	2.7 µM (inactive)	3.17 µM (inactive)	2.01 µM (inactive)	1.17 µM (inactive)	4.79 µM (inactive)	1.1 µM	3.44 µM (inactive)	0.284 µM (active)	7.48 µM (inactive)	> 10 µM (inactive)
Nc1ccc(Cn2ccc3c4c(N)nc(N)nc4ccc32)cc1	0.219 µM (active)	< 0.01 µM (active)	0.406 µM (active)	0.3 µM (active)	0.628 µM (active)	0.0123 µM (active)	0.0847 µM (active)	0.0119 µM (active)	< 0.01 µM (active)	< 0.01 µM (active)	4.27 µM (inactive)	< 0.0268 µM (active)	< 0.0127 µM (active)		0.0321 µM (active)	< 0.01 µM	< 0.01 µM (active)	< 0.01 µM (active)	0.818 µM (active)	6.47 µM (inactive)
